Patent US5356882A, “Antiviral pyrimidine nucleosides” (University of Birmingham, priority 1989, dated 1994)
Each block holds one compound with its values, some of them ahead of it.

Columns and labels:
VZV = experiment: Anti-VZV Activity, plaque reduction assay in MRC-5 cells; format: cell-based, varicella zoster virus (clinical isolates); conditions: Human alphaherpesvirus 3, MRC5, MRC-5 cells, clinical isolates
Experimental: Clinical isolates of varicella zoster virus (VZV) were assayed in monolayers of MRC-5 cells. MRC-5 cells are derived from human embyonic lung tissue. A plaque reduction assay was used in which a suspension Of the virus stock was used to infect monolayers of the cells in multiwell trays. a range of concentrations of the compound under test of known molarity was added to the wells. Plaque numbers at each concnetration were expressed as percentages of the control and a dose response curve was constructed. From these curves the 50% inhibitory concentration of each drug was determined.

HSV1 = experiment: Anti-HSV Activity, plaque reduction assay in Vero cells (HSV-1 strain SC16); format: cell-based, Herpes Simplex Virus type 1 (strain SC16)
Experimental: (§1) Herpes Simplex Virus types 1 (HSV 1) and 2 (HSV2) were assayed in monolayers of Vero cells in multiwell trays. The virus strains used were SC16 and 186 for HSV-1 and HSV-2 respectively. Activity of compounds was determined in the plaque reduction assay, in which a cell monolayer was infected with a suspension of the appropirate HSV, and then overlaid with nutrient agarose in the form of a gel to ensure that there was no spread of virus throughout the culture. A range of concentrations of compound of known molarity was incorporated in the nutrient agarose overlay. Plaque numbers at each concentration were expressed as percentages of the control and a dose-response curve was drawn. From this curve the 50% inhibitory concentration (IC50) was estimated to be 0.66 μm for the compound of formula (I) in which X represents a 2-bromovinyl group.

HSV2 = experiment: Anti-HSV Activity, plaque reduction assay in Vero cells (HSV-2 strain 186); format: cell-based, Herpes Simplex Virus type 2 (strain 186)
Experimental: as §1

[1] = CCID50 (Table 1; method not described); format: cell-based
[2] = toxicity / therapeutic index (general statement); conditions: statement in words

Compound: CCc1cn([C@H]2C[C@H](O)[C@@H](CO)S2)c(=O)[nH]c1=O [CH2 CH3, OH, 2'-Deoxy-5-ethyl-4'thiouridine]
IC50 (VZV): 0.79 µM

IC50 (HSV1; Vero cells, strain SC16, plaque reduction): ~2.3 µM
IC50 (HSV2; Vero cells, strain 186, plaque reduction): > 10 µM
Compound: Nc1nc(=O)n([C@H]2C[C@H](O)[C@@H](CO)S2)cc1/C=C/Br [CH=CHBr, NH2, 2'-Deoxy-5-E-(2-bromovinyl)-4'-thiocytidine]

Compound: O=c1[nH]c(=O)n([C@H]2C[C@H](O)[C@@H](CO)S2)cc1/C=C/Br [CH=CHBr, OH, E-5-(2-bromovinyl)-2'-deoxy-4'-thiouridine]
CC50 [1]: > 500 µM

Compound: Cc1cn([C@H]2C[C@H](O)[C@@H](CO)S2)c(=O)[nH]c1=O [β-4'-thio-thymidine]
activity against HSV1 (HSV1; statement in words): good activity
activity against HSV2 (HSV2; statement in words): good activity
toxicity [2]: toxic
